Assay results published in the NIST ThermoML archive (doi:10.1021/acs.jced.8b00438).
Numbers after ± are expanded uncertainties.

Tests used:
[1] = 100 kPa, Liquid; for viscosity: Falling or rolling sphere viscometry; for mass density: Vibrating tube method
[2] = xn = mol fraction of the nth substance listed; conditions: 100 kPa, Liquid; for viscosity: Falling or rolling sphere viscometry; for mass density: Vibrating tube method

| Structure (SMILES) | viscosity ([1]; 293.15 K) [mPa·s] | mass density ([1]; 293.15 K) [kg/m3] | viscosity ([1]; 298.15 K) [mPa·s] | mass density ([1]; 298.15 K) [kg/m3] | viscosity ([1]; 303.15 K) [mPa·s] | mass density ([1]; 303.15 K) [kg/m3] | viscosity ([1]; 308.15 K) [mPa·s] | mass density ([1]; 308.15 K) [kg/m3] | viscosity ([1]; 313.15 K) [mPa·s] | mass density ([1]; 313.15 K) [kg/m3] | viscosity ([1]; 318.15 K) [mPa·s] | mass density ([1]; 318.15 K) [kg/m3] | viscosity ([1]; 323.15 K) [mPa·s] | mass density ([1]; 323.15 K) [kg/m3] | viscosity ([1]; 328.15 K) [mPa·s] | mass density ([1]; 328.15 K) [kg/m3] | viscosity ([1]; 333.15 K) [mPa·s] | mass density ([1]; 333.15 K) [kg/m3] | viscosity ([2]; 293.15 K, x2 = 0) [mPa·s] | mass density ([2]; 293.15 K, x2 = 0) [kg/m3] | other results |
| --- | --- | --- | --- | --- | --- | --- | --- | --- | --- | --- | --- | --- | --- | --- | --- | --- | --- | --- | --- | --- | --- |
| C1CCC(C2CCCCC2)CC1 [1,1'-bicyclohexyl] | 4.003 ± 0.085 | 886.05 ± 0.89 | 3.53 ± 0.075 | 882.44 ± 0.89 | 3.137 ± 0.067 | 878.84 ± 0.88 | 2.81 ± 0.06 | 875.25 ± 0.88 | 2.532 ± 0.054 | 871.66 ± 0.88 | 2.296 ± 0.049 | 868.08 ± 0.87 | 2.092 ± 0.045 | 864.5 ± 0.87 | 1.915 ± 0.041 | 860.93 ± 0.87 | 1.762 ± 0.038 | 857.35 ± 0.86 |  |  |  |
| CCCCO [butan-1-ol] | 2.941 ± 0.063 | 809.5 ± 0.82 | 2.58 ± 0.055 | 805.7 ± 0.81 | 2.274 ± 0.048 | 801.87 ± 0.81 | 2.012 ± 0.043 | 798 ± 0.81 | 1.787 ± 0.038 | 794.1 ± 0.8 | 1.593 ± 0.034 | 790.15 ± 0.8 | 1.426 ± 0.03 | 786.16 ± 0.8 | 1.28 ± 0.027 | 782.12 ± 0.79 | 1.152 ± 0.025 | 778.01 ± 0.79 |  |  |  |
| CCCCO [butan-1-ol] + C1CCC(C2CCCCC2)CC1 |  |  |  |  |  |  |  |  |  |  |  |  |  |  |  |  |  |  | 2.941 ± 0.063 | 809.5 ± 0.82 | viscosity ([2]; 298.15 K, x2 = 0): 2.58 ± 0.055 mPa·s; mass density ([2]; 298.15 K, x2 = 0): 805.7 ± 0.81 kg/m3; viscosity ([2]; 303.15 K, x2 = 0): 2.274 ± 0.048 mPa·s; mass density ([2]; 303.15 K, x2 = 0): 801.87 ± 0.81 kg/m3; viscosity ([2]; 308.15 K, x2 = 0): 2.012 ± 0.043 mPa·s; mass density ([2]; 308.15 K, x2 = 0): 798 ± 0.81 kg/m3; viscosity ([2]; 313.15 K, x2 = 0): 1.787 ± 0.038 mPa·s; mass density ([2]; 313.15 K, x2 = 0): 794.1 ± 0.8 kg/m3; viscosity ([2]; 318.15 K, x2 = 0): 1.593 ± 0.034 mPa·s; mass density ([2]; 318.15 K, x2 = 0): 790.15 ± 0.8 kg/m3; viscosity ([2]; 323.15 K, x2 = 0): 1.426 ± 0.03 mPa·s; mass density ([2]; 323.15 K, x2 = 0): 786.16 ± 0.8 kg/m3; viscosity ([2]; 328.15 K, x2 = 0): 1.28 ± 0.027 mPa·s; mass density ([2]; 328.15 K, x2 = 0): 782.12 ± 0.79 kg/m3; viscosity ([2]; 333.15 K, x2 = 0): 1.152 ± 0.025 mPa·s; mass density ([2]; 333.15 K, x2 = 0): 778.01 ± 0.79 kg/m3 |
| CCCCO [butan-1-ol] + CCCCCCCCCCCC |  |  |  |  |  |  |  |  |  |  |  |  |  |  |  |  |  |  | 2.941 ± 0.063 | 809.5 ± 0.82 | viscosity ([2]; 298.15 K, x2 = 0): 2.58 ± 0.055 mPa·s; mass density ([2]; 298.15 K, x2 = 0): 805.7 ± 0.81 kg/m3; viscosity ([2]; 303.15 K, x2 = 0): 2.274 ± 0.048 mPa·s; mass density ([2]; 303.15 K, x2 = 0): 801.87 ± 0.81 kg/m3; viscosity ([2]; 308.15 K, x2 = 0): 2.012 ± 0.043 mPa·s; mass density ([2]; 308.15 K, x2 = 0): 798 ± 0.81 kg/m3; viscosity ([2]; 313.15 K, x2 = 0): 1.787 ± 0.038 mPa·s; mass density ([2]; 313.15 K, x2 = 0): 794.1 ± 0.8 kg/m3; viscosity ([2]; 318.15 K, x2 = 0): 1.593 ± 0.034 mPa·s; mass density ([2]; 318.15 K, x2 = 0): 790.15 ± 0.8 kg/m3; viscosity ([2]; 323.15 K, x2 = 0): 1.426 ± 0.03 mPa·s; mass density ([2]; 323.15 K, x2 = 0): 786.16 ± 0.8 kg/m3; viscosity ([2]; 328.15 K, x2 = 0): 1.28 ± 0.027 mPa·s; mass density ([2]; 328.15 K, x2 = 0): 782.12 ± 0.79 kg/m3; viscosity ([2]; 333.15 K, x2 = 0): 1.152 ± 0.025 mPa·s; mass density ([2]; 333.15 K, x2 = 0): 778.01 ± 0.79 kg/m3 |
| CCCCCCCCCCCC [dodecane] | 1.491 ± 0.032 | 748.83 ± 0.76 | 1.366 ± 0.029 | 745.22 ± 0.76 | 1.257 ± 0.027 | 741.59 ± 0.75 | 1.154 ± 0.025 | 737.95 ± 0.75 | 1.076 ± 0.023 | 734.31 ± 0.75 | 1.003 ± 0.021 | 730.66 ± 0.74 | 0.936 ± 0.02 | 727 ± 0.74 | 0.877 ± 0.019 | 723.33 ± 0.74 | 0.823 ± 0.018 | 719.65 ± 0.73 |  |  |  |
| CCCCCCCCCCCC [dodecane] + C1CCC(C2CCCCC2)CC1 |  |  |  |  |  |  |  |  |  |  |  |  |  |  |  |  |  |  |  |  | viscosity ([2]; 293.15 K, x1 = 1): 1.491 ± 0.032 mPa·s; mass density ([2]; 293.15 K, x1 = 1): 748.83 ± 0.76 kg/m3; viscosity ([2]; 298.15 K, x1 = 1): 1.366 ± 0.029 mPa·s; mass density ([2]; 298.15 K, x1 = 1): 745.22 ± 0.76 kg/m3; viscosity ([2]; 303.15 K, x1 = 1): 1.257 ± 0.027 mPa·s; mass density ([2]; 303.15 K, x1 = 1): 741.59 ± 0.75 kg/m3; viscosity ([2]; 308.15 K, x1 = 1): 1.154 ± 0.025 mPa·s; mass density ([2]; 308.15 K, x1 = 1): 737.95 ± 0.75 kg/m3; viscosity ([2]; 313.15 K, x1 = 1): 1.076 ± 0.023 mPa·s; mass density ([2]; 313.15 K, x1 = 1): 734.31 ± 0.75 kg/m3; viscosity ([2]; 318.15 K, x1 = 1): 1.003 ± 0.021 mPa·s; mass density ([2]; 318.15 K, x1 = 1): 730.66 ± 0.74 kg/m3; viscosity ([2]; 323.15 K, x1 = 1): 0.936 ± 0.02 mPa·s; mass density ([2]; 323.15 K, x1 = 1): 727 ± 0.74 kg/m3; viscosity ([2]; 328.15 K, x1 = 1): 0.877 ± 0.019 mPa·s; mass density ([2]; 328.15 K, x1 = 1): 723.33 ± 0.74 kg/m3; viscosity ([2]; 333.15 K, x1 = 1): 0.823 ± 0.018 mPa·s; mass density ([2]; 333.15 K, x1 = 1): 719.65 ± 0.73 kg/m3 |
